According to the supplement of paper PMC10307832:

Assays:
Experiment in all cases: relative viability (nuclei count vs DMSO), 5 days (fraction); higher = more cells survive
Dinaciclib + Bortezomib = compound: CCc1cnn2c(NCc3ccc[n+]([O-])c3)cc(N3CCCC[C@H]3CCO)nc12 [Dinaciclib] + CC(C)C[C@H](NC(=O)[C@H](Cc1ccccc1)NC(=O)c1cnccn1)B(O)O [Bortezomib] (partner 0.002 µM)
Outline: (§1)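 Relative viability divides the nuclei count in treated wells by that in vehicle wells. Lung cancer cell lines were seeded in 1536-well plates, dosed by pin tool the next day, and fixed and stained after 5 days in one step with final 0.05% Triton X-100, 1% formaldehyde and 1 ug/ml Hoechst. Dosing was a single drug or a fixed anchor-drug dose plus five library-drug doses (not always all listed) in √10 steps, and values are medians of duplicate plates imaged at 4×.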

Dinaciclib + Luminespib = compound: CCc1cnn2c(NCc3ccc[n+]([O-])c3)cc(N3CCCC[C@H]3CCO)nc12 [Dinaciclib] + CCNC(=O)c1noc(-c2cc(C(C)C)c(O)cc2O)c1-c1ccc(CN2CCOCC2)cc1 [Luminespib] (partner 0.01 µM)
Outline: as §1

Dinaciclib + Foretinib = compound: CCc1cnn2c(NCc3ccc[n+]([O-])c3)cc(N3CCCC[C@H]3CCO)nc12 [Dinaciclib] + COc1cc2c(Oc3ccc(NC(=O)C4(C(=O)Nc5ccc(F)cc5)CC4)cc3F)ccnc2cc1OCCCN1CCOCC1 [Foretinib] (partner 0.25 µM)
Outline: as §1

Dinaciclib + Tozasertib = compound: CCc1cnn2c(NCc3ccc[n+]([O-])c3)cc(N3CCCC[C@H]3CCO)nc12 [Dinaciclib] + Cc1cc(Nc2cc(N3CCN(C)CC3)nc(Sc3ccc(NC(=O)C4CC4)cc3)n2)n[nH]1 [Tozasertib] (partner 0.1 µM)
Outline: as §1

Dinaciclib + Vorinostat = compound: CCc1cnn2c(NCc3ccc[n+]([O-])c3)cc(N3CCCC[C@H]3CCO)nc12 [Dinaciclib] + O=C(CCCCCCC(=O)Nc1ccccc1)NO [Vorinostat] (partner 1 µM)
Outline: as §1

Cell Line | relative viability (Dinaciclib + Bortezomib; first compound 0.009487 µM) | relative viability (Dinaciclib + Bortezomib; first compound 0.03 µM) | relative viability (Dinaciclib + Bortezomib; first compound 0.09487 µM) | relative viability (Dinaciclib + Bortezomib; first compound 0.3 µM) | relative viability (Dinaciclib + Luminespib; first compound 0.009487 µM) | relative viability (Dinaciclib + Luminespib; first compound 0.03 µM) | relative viability (Dinaciclib + Luminespib; first compound 0.09487 µM) | relative viability (Dinaciclib + Luminespib; first compound 0.3 µM) | relative viability (Dinaciclib + Foretinib; first compound 0.009487 µM) | relative viability (Dinaciclib + Foretinib; first compound 0.03 µM) | relative viability (Dinaciclib + Foretinib; first compound 0.09487 µM) | relative viability (Dinaciclib + Foretinib; first compound 0.3 µM) | relative viability (Dinaciclib + Tozasertib; first compound 0.009487 µM) | relative viability (Dinaciclib + Tozasertib; first compound 0.03 µM) | relative viability (Dinaciclib + Tozasertib; first compound 0.09487 µM) | relative viability (Dinaciclib + Tozasertib; first compound 0.3 µM) | relative viability (Dinaciclib + Vorinostat; first compound 0.009487 µM) | relative viability (Dinaciclib + Vorinostat; first compound 0.03 µM) | relative viability (Dinaciclib + Vorinostat; first compound 0.09487 µM) | relative viability (Dinaciclib + Vorinostat; first compound 0.3 µM)
EKVX | 1.02 | 0.451 | 0.109 | 0.149 | 0.858 | 0.705 | 0.137 | 0.101 | 0.93 | 0.0805 | 0.246 | 0.0963 | 0.398 | 0.253 | 0.074 | 0.0722 | 0.612 | 0.472 | 0.167 | 0.226
EMC-BAC-2 | 0.978 | 0.779 | 0.137 | 0.148 | 1.15 | 0.382 | 0.145 | 0.16 | 1.14 | 0.319 | 0.159 | 0.148 | 0.265 | 0.209 | 0.142 | 0.121 | 0.36 | 0.166 | 0.152 | 0.143
EPLC-272H | 0.89 | 0.57 | 0.0541 | 0.0535 | 0.2 | 0.0547 | 0.042 | 0.0355 | 0.591 | 0.0464 | 0.0366 | 0.0314 | 0.229 | 0.0357 | 0.0443 | 0.0467 | 0.242 | 0.0369 | 0.0282 | 0.0401
H3255 | 0.734 | 0.227 | 0.15 | 0.169 | 0.813 | 0.72 | 0.204 | 0.18 | 0.841 | 0.76 | 0.217 | 0.2 | 0.678 | 0.578 | 0.256 | 0.218 | 0.705 | 0.51 | 0.211 | 0.205
HARA | 0.888 | 0.0756 | 0.0605 | 0.0587 | 0.367 | 0.0789 | 0.0403 | 0.0571 | 0.583 | 0.0737 | 0.0603 | 0.0628 | 0.105 | 0.0553 | 0.0492 | 0.0424 | 0.527 | 0.331 | 0.0816 | 0.0937
HCC-15 | 0.628 | 0.106 | 0.0945 | 0.0993 | 0.122 | 0.1 | 0.102 | 0.141 | 0.652 | 0.12 | 0.109 | 0.107 | 0.407 | 0.0586 | 0.0549 | 0.0646 | 0.715 | 0.355 | 0.121 | 0.124
HCC-44 | 0.883 | 0.115 | 0.106 | 0.102 | 0.61 | 0.2 | 0.179 | 0.17 | – | – | – | – | 0.594 | 0.204 | 0.206 | 0.184 | 1.24 | 1.04 | 0.368 | 0.319
HCC-78 | 0.61 | 0.169 | 0.133 | 0.122 | – | – | – | – | 0.613 | 0.386 | 0.174 | 0.18 | 0.345 | 0.282 | 0.144 | 0.138 | 0.457 | 0.372 | 0.229 | 0.186
